# Assay results from publication PMC8596125, “Self‐Stabilized Supramolecular Assemblies Constructed from PEGylated Dendritic Peptide Conjugate for Augmenting Tumor Retention and Therapy” (Advanced Science, 2021).
# Assays:
# 4T1 breast tumors = test: In vivo / ex vivo fluorescence imaging and tumor retention; parameters: species or system mouse; settings: BALB/c nude mice with 4T1 tumors, i.v. 5 mg Ppa kg-1, in vivo fluorescence imaging up to 14 d, n = 3
# Description: Where AS is the absorbance of the sample, A100 is the absorbance of lysed erythrocytes in H2O (a positive control), and A0 is the absorbance of 0% hemolysis in PBS (a negative control).
# 1.3.12 Skin photosensitization
# The backs of healthy BALB/c mice were depilated 3 days before treatment to ensure that all injures had recovered. The shaved mice were randomly divided into 4 groups: (a) SSAs + laser irradiation; (b) Ppa + laser irradiation; (c) laser irradiation; (d) control (without any treatment). The dose of Ppa was 5 mg Ppa kg-1. Right after administration, the anesthetized mice were irradiated by a 660 nm laser (0.26 W cm-2, […], 108 J cm-2). […] The degree of skin response was examined and scored according to Table S5, and Paraffin sections of the skin were stained with hematoxylin and eosin (H&E) according to the manufacturer's instructions.[3] […]
# Plasma was diluted to 50-fold with DMSO for fluorescent measurements using a BioTek plate reader. The pharmacokinetic parameters were calculated using a two-compartment model by WinNonlin 5.2 software.
# 1.3.14 In vivo fluorescence imaging and biodistribution […]
# Fluorescence signals were detected at 1 h, 3 h, 12h, 24 h, 2 d, 3 d, 5 d, 7 d, 9 d, 11 d […]
# and 14 d post-intravenous injection by a small-animal in vivo fluorescence imaging system (CRi Maestro EX, USA) with excitation at […]. […]
# 4T1 cells = test: In vitro cellular uptake (flow cytometry, CLSM); type: cell-based, mouse; settings: 1 µg Ppa mL-1, 2, 6 and 24 h
# Procedure: CCK-8 assay. 5×103 L02 normal cells per well were seeded in a 96-well plate, and then treated by Ppa and SSAs for 24 h incubation or PDP for 24 h and 48 h incubation.
# Cell viability of each group was obtained through the same process.
# 1.3.9 In vitro cellular uptake
# To determine cellular uptake and intracellular distribution of SSAs, 4T1 cells (2×104) were seeded on each glass coverslip to allow attachment, and incubated with Ppa and PDPP for 1 h, 3 h and 6 h, while Ppa was used as a control. After nuclear staining by Hoechst 33258, cells were washed by PBS and then observed under a confocal laser scanning microscopy (CLSM) (excitation and emission wavelengths:
# 630 nm and 678 nm), and images were captured by Leica Confocal Software.
# For quantitative characterization of uptake of SSAs by cells, 4T1 cells were seeded in 6 well plates at 1×10^5 cells per well and incubated for 2 h, 6 h and 24 h. After the spent medium was replaced with fresh one, cells were treated by Ppa and SSAs at an equivalent concentration of 1 μg Ppa mL-1 for pre-specified times. Cells were then washed with PBS twice, harvested, and suspended in 100 μL of PBS for flow cytometer analyses. 20,000 events were collected and Flowjo software was used for generating each histogram.
# For TEM, 4T1 cells cultured in 6 cm dishes were incubated with Ppa and SSAs. […]
# A549 cells = test: Cytotoxicity, CCK-8 assay, A549; type: cell-based, human
# Procedure: The CCK-8 assay was used to examine the photodynamic therapeutic effect of SSAs on cell viability against three cell lines. 4×103 4T1 cells per well were seeded in a 96-well plate, and then incubated overnight. The cells were treated with different concentrations of Ppa and SSAs at an equivalent Ppa dose. After 24 h incubation, the medium was replaced with fresh one, and the wells were irradiated using a 660 nm laser with 1 J cm−2. After 24 h, the spent media was replaced and the cell viability was assessed using the CCK-8 reagent. The absorbance at […] of each well was recorded on a microplate reader. Untreated cells were served as a control. Results were presented as the average cell viability by following the manufacturer’s instruction. IC50 values were calculated by using nonlinear regression in software Graphpad Prism7. The cytotoxicity of SSAs and Ppa with or without laser against A549 cell line was also measured through the same procedure. […]
smiles,measurement,setting,value
"C=Cc1c(C)c2cc3nc(c4c5[nH]c(cc6nc(cc1[nH]2)C(C)=C6CC)c(C)c5C(=O)C4)[C@@H](CCC(=O)O)[C@@H]3C [Ppa, pyropheophorbide a]",Persistence of the fluorescence signal in tumors,4T1 breast tumors,disappear on day 3 after injection
same,Cellular uptake,4T1 cells,better uptake efficiency compared with SSAs
same,Cytotoxicity without laser irradiation,A549 cells,much higher cytotoxicity
same,Cytotoxicity under laser irradiation,A549 cells; 660 nm laser,strong cytotoxicity
